Drawing on patent USRE31731E, “Herbicidal 4-trifluoromethyl-4-nitrodiphenyl ethers” (priority 1978, dated 1984), this text covers pest or weed control for 15 molecules.

What all share (assay type): in vivo
Experiment [1] relates to Dicots. Kind of experiment: Herbicidal activity, postemergence, dicot weeds (Table II). The conditions noted are these: post-emergence, 336 h, about 2 weeks, read-out: % control (percent of plants killed); for pest or weed control at 4483.4 g/ha: 4 lb./A.; for pest or weed control at 11208.5 g/ha: 10 lb./A.; for pest or weed control at 2241.7 g/ha: 2 lb./A. As for the experimental part: (§1) Using the procedure described below, diphenyl ethers were evaluated for control of the following weeds: […]
(§2) bindweed (Convolvulus arvensis) curly dock (Remex crispus) velvetleaf (Abutilon theophrasti) wild mustard (Brassica haber)
(§3) At 2 and 4 pounds per acre: […]
(§4) cocklebur (Xanthium pensylvanicum)
(§5) **coffeeweed (Sesbania macrocarpa)
(§6) *curly dock (Rumex crispus)
(§7) *lambsquarters (Chenopodium album) morningglory (Ipomoea purpurea)
(§8) *pigweed (Amaranthus retroflexus)
(§9) **ragweed (Ambrosia artemisiifolia)
(§10) *smartweed (Polygonum pensylvanicum)
(§11) **tomato (Lycopersicon esculentum)
(§12) *wild carrot (Daucus carota)
(§13) *wild mustard (Brassica haber)
(§14) The following test procedure is employed. Seeds of selected crops and weeds are planted in soil in flats. For preemergence tests, the flats are treated with the test compound immediately after the planting. For postemergence tests, the seeds are allowed to germinate, and after 2 weeks the flats are treated with the test compound. The compound to be evaluated is dissolved in acetone, diluted with water, and sprayed over the flats using a carrier volume equivalent to 50 gallons per acre at the rate of application (pounds per acre, lb/A.) specified in the tables. About 2 weeks after the application of the test compound, the state of growth of the plants is observed and the phytotoxic effect of the compound is evaluated. Table II gives the average percent control achieved by the test compounds in terms of the percent of the plants which are killed by the compounds.

The subject of experiment [2] is Dicots. Nature of the experiment: Herbicidal activity, preemergence, dicot weeds (Table II). The conditions noted are these: pre-emergence, 336 h, about 2 weeks, read-out: % control (percent of plants killed); for pest or weed control at 4483.4 g/ha: 4 lb./A.; for pest or weed control at 11208.5 g/ha: 10 lb./A.; for pest or weed control at 2241.7 g/ha: 2 lb./A. The method, then:
as §1, §2, §3, §4, §5, §6, §7, §8, §9, §10, §11, §12, §13, §14

Experiment [3] has as its system Monocots. Nature of the experiment: Herbicidal activity, postemergence, monocot weeds (Table II). The following applies: post-emergence, 336 h, about 2 weeks, read-out: % control (percent of plants killed); for pest or weed control at 4483.4 g/ha: 4 lb./A.; for pest or weed control at 11208.5 g/ha: 10 lb./A.; for pest or weed control at 2241.7 g/ha: 2 lb./A. The method, then: as §1
(§15) barnyardgrass (Echinochloa crusgalli) crabgrass (Digitaria spp.) nutsedge (Cyperus esculentus)
(§16) At 2 and 4 pounds per acre:
(§17) **Bermudagrass (Cynodon dactylon)
(§18) *downy brome (Bromus tectorum) foxtail (Setaria faberii)
(§19) Johnsongrass (Sorghum halepense) […]
(§20) quackgrass (Agropyron repens)
(§21) *ryegrass (Lolium perenne)
(§22) *yellow millet (Panicum miliaceum)
as §14

Experiment [4] has as its system Monocots. Kind of experiment: Herbicidal activity, preemergence, monocot weeds (Table II). The following applies: pre-emergence, 336 h, about 2 weeks, read-out: % control (percent of plants killed); for pest or weed control at 4483.4 g/ha: 4 lb./A.; for pest or weed control at 11208.5 g/ha: 10 lb./A.; for pest or weed control at 2241.7 g/ha: 2 lb./A. As for the experimental part: as §1, §15, §16, §17, §18, §19, §20, §21, §22, §14

Structures are written as SMILES.

For the molecule `CCOc1cc(Oc2ccc(C(F)(F)F)cc2)ccc1[N+](=O)[O-]` [Example 1], the pest or weed control at 4483.4 g/ha in the experiment with Dicots [1] was 58%; with Dicots [2], 45%; in the experiment with Monocots [3] it was 57%; in the experiment with Monocots [4] it was 76%. In addition, the pest or weed control at 11208.5 g/ha in the experiment on Dicots [1] amounted to 100%; in the experiment on Dicots [2], 35%; with Monocots [3], 82%; with Monocots [4], 42%.

In the case of `COc1cc(Oc2ccc(C(F)(F)F)cc2Cl)ccc1[N+](=O)[O-]` [Example 2], the pest or weed control at 4483.4 g/ha turned out to be 100% in the experiment with Dicots [1], 80% in the experiment with Dicots [2], 99% with Monocots [3] and 97% in the experiment with Monocots [4]. For the same molecule, the pest or weed control at 11208.5 g/ha in the experiment with Dicots [1] came to 100%; in the experiment on Dicots [2], 100%; in the experiment with Monocots [3] it was 100%; in the experiment on Monocots [4], 97%.

Regarding `CCCOc1cc(Oc2ccc(C(F)(F)F)cc2Cl)ccc1[N+](=O)[O-]` [Example 5], the pest or weed control at 4483.4 g/ha was determined as 100% with Dicots [1], 78% in the experiment on Dicots [2], 99% with Monocots [3] and 84% in the experiment with Monocots [4]. Also, the pest or weed control at 11208.5 g/ha in the experiment with Dicots [1] is 100%; in the experiment on Dicots [2] it was 100%; in the experiment on Monocots [3], 100%; with Monocots [4], 97%.

As for `CCCCOc1cc(Oc2ccc(C(F)(F)F)cc2Cl)ccc1[N+](=O)[O-]` [Example 6], the pest or weed control at 4483.4 g/ha amounted to 94% in the experiment on Dicots [1], 55% with Dicots [2], 91% in the experiment with Monocots [3] and 77% in the experiment on Monocots [4]. The pest or weed control at 11208.5 g/ha in the experiment with Dicots [1] came to 100%; with Dicots [2] it was 70%; with Monocots [3] it was 97%; with Monocots [4] it was 65%.

On to `CCOc1cc(Oc2ccc(C(F)(F)F)cc2C#N)ccc1[N+](=O)[O-]` [Example 7, 2-Cyano-α,α,α-trifluoro-p-tolyl-3-ethoxy-4-nitrophenyl ether], for which the pest or weed control at 2241.7 g/ha is 80% in the experiment with Dicots [1], 54% in the experiment with Dicots [2], 82% with Monocots [3] and 65% in the experiment with Monocots [4]. The pest or weed control at 4483.4 g/ha in the experiment with Dicots [1] is 77%; with Dicots [2] it was 57%; in the experiment on Monocots [3], 75%; with Monocots [4], 65%. Moreover, the pest or weed control at 11208.5 g/ha in the experiment with Dicots [1] was found to be 100%; in the experiment with Dicots [2] it was 60%; in the experiment on Monocots [3], 100%; in the experiment on Monocots [4], 61%.

For the molecule `CCCOc1cc(Oc2ccc(C(F)(F)F)cc2C#N)ccc1[N+](=O)[O-]` [Example 8], the pest or weed control at 2241.7 g/ha in the experiment on Dicots [1] was 66%; in the experiment with Dicots [2] it was 46%; in the experiment with Monocots [3] it was 35%; in the experiment with Monocots [4], 52%. Further, the pest or weed control at 4483.4 g/ha in the experiment on Dicots [1] is 80%; with Dicots [2], 57%; in the experiment with Monocots [3], 48%; in the experiment on Monocots [4], 61%. The pest or weed control at 11208.5 g/ha was found to be 100% in the experiment on Dicots [1], 82% in the experiment with Dicots [2], 85% with Monocots [3] and 81% with Monocots [4].

In the case of `Cc1cc(Oc2ccc(C(F)(F)F)cc2C#N)ccc1[N+](=O)[O-]` [Example 9], the pest or weed control at 2241.7 g/ha with Dicots [1] came to 75%; in the experiment with Dicots [2], 67%; in the experiment on Monocots [3], 82%; with Monocots [4], 81%. Besides, the pest or weed control at 4483.4 g/ha in the experiment on Dicots [1] was determined as 81%; in the experiment on Dicots [2], 66%; in the experiment with Monocots [3], 97%; in the experiment with Monocots [4], 90%. For the same molecule, the pest or weed control at 11208.5 g/ha in the experiment on Dicots [1] was determined as 100%; in the experiment on Dicots [2], 92%; with Monocots [3], 100%; in the experiment with Monocots [4], 99%.

As to `O=[N+]([O-])c1ccc(Oc2ccc(C(F)(F)F)cc2Cl)cc1O` [Example 10, 2-Chloro-α,α,α-trifluoro-p-tolyl-3-hydroxy-4-nitrophenyl ether], the pest or weed control at 2241.7 g/ha in the experiment with Dicots [1] was 85%; in the experiment with Dicots [2] it was 70%; with Monocots [3], 17%; in the experiment on Monocots [4] it was 66%. Moreover, the pest or weed control at 4483.4 g/ha in the experiment on Dicots [1] was determined as 98%; in the experiment on Dicots [2] it was 100%; with Monocots [3] it was 67%; with Monocots [4], 70%.

Take `C=CCOc1cc(Oc2ccc(C(F)(F)F)cc2Cl)ccc1[N+](=O)[O-]` [Example 12]: the pest or weed control at 2241.7 g/ha in the experiment on Dicots [1] worked out at 100%; in the experiment with Dicots [2], 93%; in the experiment with Monocots [3], 99%; in the experiment on Monocots [4], 72%. In addition, the pest or weed control at 4483.4 g/ha was determined as 100% in the experiment with Dicots [1], 96% with Dicots [2], 77% in the experiment with Monocots [3] and 86% in the experiment with Monocots [4].

As to `C#CCOc1cc(Oc2ccc(C(F)(F)F)cc2Cl)ccc1[N+](=O)[O-]` [Example 13], the pest or weed control at 2241.7 g/ha with Dicots [1] amounted to 100%; with Dicots [2], 72%; with Monocots [3] it was 100%; in the experiment with Monocots [4] it was 78%. Moreover, the pest or weed control at 4483.4 g/ha in the experiment with Dicots [1] stood at 98%; in the experiment on Dicots [2], 90%; in the experiment with Monocots [3], 77%; in the experiment with Monocots [4], 76%.

Consider `CC#CCCOc1cc(Oc2ccc(C(F)(F)F)cc2Cl)ccc1[N+](=O)[O-]` [Example 14], for which the pest or weed control at 2241.7 g/ha with Dicots [1] turned out to be 100%; in the experiment with Dicots [2], 22%; in the experiment with Monocots [3] it was 91%; with Monocots [4], 30%. The pest or weed control at 4483.4 g/ha amounted to 94% with Dicots [1], 78% in the experiment on Dicots [2], 61% in the experiment with Monocots [3] and 64% in the experiment on Monocots [4].

As for `O=[N+]([O-])c1ccc(Oc2ccc(C(F)(F)F)cc2Cl)cc1OCCO` [Example 15, 2-chloro-α,α,α-trifluoro-p-tolyl-3-(2-hydroxyethoxy)-4-nitrophenyl ether], the pest or weed control at 2241.7 g/ha in the experiment on Dicots [1] was 94%; in the experiment on Dicots [2], 90%; in the experiment with Monocots [3] it was 76%; in the experiment with Monocots [4] it was 68%. The pest or weed control at 4483.4 g/ha with Dicots [1] came to 99%; in the experiment with Dicots [2] it was 100%; in the experiment on Monocots [3], 79%; in the experiment on Monocots [4], 99%.

For `CCOCCOc1cc(Oc2ccc(C(F)(F)F)cc2Cl)ccc1[N+](=O)[O-]` [Example 16], the pest or weed control at 2241.7 g/ha was determined as 94% in the experiment with Dicots [1], 75% in the experiment with Dicots [2], 82% in the experiment with Monocots [3] and 67% with Monocots [4]. Further, the pest or weed control at 4483.4 g/ha in the experiment on Dicots [1] stood at 96%; with Dicots [2] it was 94%; with Monocots [3], 77%; in the experiment on Monocots [4], 86%.

As to `CN(C)CCOc1cc(Oc2ccc(C(F)(F)F)cc2Cl)ccc1[N+](=O)[O-]` [Example 17, 2-chloro-α,α,α-trifluoro-p-tolyl-3-(2-dimethylaminoethoxy)-4-nitrophenyl ether], the pest or weed control at 2241.7 g/ha was found to be 98% in the experiment with Dicots [1], 31% with Dicots [2], 39% with Monocots [3] and 20% in the experiment on Monocots [4]. In addition, the pest or weed control at 4483.4 g/ha was 89% in the experiment with Dicots [1], 84% in the experiment with Dicots [2], 45% in the experiment with Monocots [3] and 51% with Monocots [4].

For `O=[N+]([O-])c1ccc(Oc2ccc(C(F)(F)F)cc2Cl)cc1NCCO` [Example 22], the pest or weed control at 2241.7 g/ha in the experiment on Dicots [1] is 100%; in the experiment on Dicots [2], 77%; in the experiment on Monocots [3], 70%; with Monocots [4], 63%. Moreover, the pest or weed control at 4483.4 g/ha in the experiment with Dicots [1] came to 99%; in the experiment with Dicots [2], 98%; with Monocots [3], 60%; in the experiment on Monocots [4], 72%.
